Where two headings read alike, the source gives them in different places.
Legend:
[1] = cited from earlier work
[2] = Chemiluminescence and fluorescence changes of probes toward O2•- (KO2): response, selectivity, LOD; settings: for LOD against O2•-: KO2 0-1000 nM, LOD=3σ/k; for LOD against O2•- / fluorescent signal enhancement upon cleavage by O2•-: PBS (10 mM, pH 7.4, 10% DMSO), 37° C.; for chemiluminescence intensity increase after addition of O2•- / fluorescent signal enhancement upon cleavage by O2•-: probe 20 μM; for chemiluminescence intensity increase after addition of O2•-: O2•- 40 μM for 10 s, PBS pH 7.4, 37° C., at 480 / 520 / 580 / 540 nm; for fluorescent signal enhancement upon cleavage by O2•-: at ~486 / 532 / 582 / 542 nm
Experimental: The chemiluminescence and fluorescence changes of BOPDSu, BTPDSu, MBPDSu and MPDSu (20 μM) were recorded at different concentrations of RONS (40 μM) and other metal ions (100 μM). BOPDSu, BTPDSu, MBPDSu and MPDSu (20 μM) in phosphate buffered saline (PBS) buffer were treated in the presence of different RONS (40 μM), and metal ions (Mg^2+, Ca^2+ or Fe^2+, 100 μM) at 37° C.
The chemiluminescence signals were recorded at different concentrations of KO2 (0, 50, 100, 250, 500 and 1000 nM). Then, the limit of detection (LOD) of BOPDSu, BTPDSu, MBPDSu and MPDSu were calculated by chemiluminescence intensities based on the equation: LOD=3σ/k, where σ is the standard deviation of emission intensity of blank, and k is the slope of plot of emission intensities.

[3] = Chemiluminescence kinetic studies (half-lives, CL emission) of caged probes in the presence of O2•-; assay type: physicochemical; settings: caged probe after activation, in PBS (10% DMSO) at 37° C.
Experimental: FIG. […]
[…] The chemiluminescent intensities were plotted as a function of time.
[…] The chemiluminescence signal was recorded by the microplate reader to calculate half-lives of BTPDSu at different pHs.

[4] = Chemiluminescence quantum yield in the presence of O2•-; assay type: physicochemical; settings: probe 20 μM, O2•- 100 μM, PBS (10 mM, pH 7.4, 10% DMSO), 37° C.
Experimental: The chemiluminescence QYs of BOPDSu, BTPDSu, MBPDSu, and MPDSu (20 μM) were measured in the presence of O2^•- (100 μM) in PBS (10 mM, pH 7.4, 10% DMSO) at 37° C. The fluorescence QYs were determined by using Rhodamine B as a standard dye (QY 36%) in PBS (10 mM, pH 7.4) (X. Zhen et al., ACS Nano 2016, 10, 6400-6409). The fluorescence QY of AMPD was obtained from the literature (O. Green et al., ACS Cent. Sci. 2017, 3, 349-358).

[5] = uncaged, in PBS (10% DMSO), pH 7.4, 37° C.
[6] = uncaged, in PBS (5% DMSO), pH 7.4, 37° C.
[7] = uncaged, in PBS (10% DMSO), pH 10, 37° C.
[8] = uncaged, in PBS, pH 7.4, 10% FBS

COC1(c2cc(O)cc3oc(=O)ccc23)OOC12C1CC3CC(C1)CC2C3 (stereo not drawn)
CL Emission [1, 5]: 465 nm

COC1(c2cccc(O)c2)OOC12C1CC3CC(C1)CC2C3 (stereo not drawn)
CL Emission ([1]; uncaged, in o-Xylene at 25° C.): ~460 nm

COC1(c2cccc(O)c2Cl)OOC12C1CC3CC(C1)CC2C3 (stereo not drawn)
CL Emission [1, 6]: 470 nm
CL Emission ([1]; uncaged, in PBS (5% DMSO), pH 10, 37° C.): 470 nm

COC1(c2ccc(/C=C/C(=O)O)c(O)c2Cl)OOC12C1CC3CC(C1)CC2C3 (stereo not drawn)
CL Emission [1, 5]: 510 nm
CL Emission [1, 7]: 510 nm

COC1(c2ccc(/C=C/c3ccc(C(=O)O)cc3)c(O)c2Cl)OOC12C1CC3CC(C1)CC2C3 (stereo not drawn)
CL Emission [1, 5]: 535 nm
CL Emission [1, 7]: 535 nm

COC1(c2ccc(/C=C/c3ccc(CC(=O)O)cc3)c(O)c2Cl)OOC12C1CC3CC(C1)CC2C3 (stereo not drawn)
CL Emission [1, 5]: 500 nm
CL Emission [1, 7]: 500 nm

COC1(c2ccc(/C=C/c3ccc(OCC(=O)O)cc3)c(O)c2Cl)OOC12C1CC3CC(C1)CC2C3 (stereo not drawn)
CL Emission [1, 5]: 490 nm
CL Emission [1, 7]: 490 nm

COC1(c2cc(O)ccc2/C=C/C2=CC(=C(C#N)C#N)c3ccccc3O2)OOC12C1CC3CC(C1)CC2C3 (stereo not drawn)
CL Emission [1, 8]: 660 nm

COC1(c2cc(O)c(/C=C/C(=O)O)cc2/C=C/C2=CC(=C(C#N)C#N)c3ccccc3O2)OOC12C1CC3CC(C1)CC2C3 (stereo not drawn)
CL Emission [1, 8]: 690 nm

CC(=O)Oc1cc(C23OCC(C)(C)C2(C(C)(C)C)OO3)cc2ccc(=O)oc12 (stereo not drawn)
CL Emission ([1]; caged, after activation, in DMSO with 170 μM TBAF at 25° C.): 470 nm

COC1(c2ccc(/C=C/C#N)c(OC(=O)c3ccccc3P(c3ccccc3)c3ccccc3)c2Cl)OOC12C1CC3CC(C1)CC2C3 (stereo not drawn)
CL Emission ([1]; caged, after activation, in 20 mM HEPES or PBS (pH 7.4), 1% DMSO): 525 nm

COC1(c2ccc(/C=C/C#N)c(OCc3ccc4c(c3)C(=O)C(=O)N4)c2Cl)OOC12C1CC3CC(C1)CC2C3 (stereo not drawn)
CL Emission ([1]; caged, after activation, in 20 mM HEPES (pH 7.4), 1% DMSO): 525 nm

1-methylpyridinium-benzothiazole-phenoxyl-dioxetane [MBPDSu]
LOD against O2•- [2]: 6.3 nM
chemiluminescence intensity increase after addition of O2•- [2]: 2590 times
fluorescent signal enhancement upon cleavage by O2•- [2]: 40.5 folds
CL Emission [3]: 580 nm
ΦCl, chemiluminescence QY [4]: 0.045 einsteins/mol

COC(=O)/C=C/c1ccc(C2(OC)OOC23C2CC4CC(C2)CC3C4)c(Cl)c1O (stereo not drawn) [drawing 49]
CL Emission [1, 5]: 540 nm
CL Emission [1, 7]: 550 nm

COC(=O)/C=C/c1ccc(C2(OC)OOC23C2CC4CC(C2)CC3C4)c(Cl)c1O (stereo not drawn) [drawing 50]
CL Emission [1, 6]: 540 nm

COC1(c2ccc(/C=C/C#N)c(O)c2Cl)OOC12C1CC3CC(C1)CC2C3 (stereo not drawn) [drawing 51]
CL Emission [1, 6]: 525 nm

COC1(c2ccc(/C=C/C#N)c(O)c2Cl)OOC12C1CC3CC(C1)CC2C3 (stereo not drawn) [drawing 52]
CL Emission [1, 5]: 525 nm
CL Emission [1, 7]: 525 nm

benzoxazole-phenoxyl-dioxetane [BOPDSu]
LOD against O2•- [2]: ~5.7 nM
chemiluminescence intensity increase after addition of O2•- [2]: 3291 times
fluorescent signal enhancement upon cleavage by O2•- [2]: 45.3 folds
ΦCl, chemiluminescence QY [4]: 0.189 einsteins/mol

methyl acrylate-phenoxyl-dioxetane [MPDSu, reference compound]
LOD against O2•- [2]: 13.6 nM
chemiluminescence intensity increase after addition of O2•- [2]: 2624 times
fluorescent signal enhancement upon cleavage by O2•- [2]: 11.2 folds
ΦCl, chemiluminescence QY [4]: 0.023 einsteins/mol

From US20240277873A1, “ULTRABRIGHT […] PROBES FOR DETECTION AND IMAGING” (Nanyang Technological University, priority 2021, published 2024)
